Test results published in PMC8315109 (Science signaling, 2021).

What was measured:
[1] = target: T1, Jupiter microtubule-associated homolog 2 (JPT2) (Homo sapiens, UniProt Q9H910); assay: […]-NAADP radioligand filtration binding, displacement by unlabeled NAADP
T1 sequence (Q9H910 1-218 isoform Q9H910-3): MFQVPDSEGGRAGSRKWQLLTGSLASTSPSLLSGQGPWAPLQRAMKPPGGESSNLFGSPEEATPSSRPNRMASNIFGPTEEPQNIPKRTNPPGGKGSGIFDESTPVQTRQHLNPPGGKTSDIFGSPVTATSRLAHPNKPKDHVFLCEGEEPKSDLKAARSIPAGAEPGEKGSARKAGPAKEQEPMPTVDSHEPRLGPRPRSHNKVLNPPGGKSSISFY

[2] = target: T1, Jupiter microtubule-associated homolog 2 (JPT2); assay: […]-NAADP radioligand filtration binding, displacement by HPLC-purified NADP

IC50 [1] | IC50 [2] | SMILES
20 ± 3.6 nM | – | Nc1ncnc2c1ncn2[C@@H]1O[C@H](COP(=O)(O)OP(=O)(O)OC[C@H]2O[C@@H]([n+]3cccc(C(=O)O)c3)[C@H](O)[C@@H]2O)[C@@H](O)[C@H]1OP(=O)(O)O [NAADP]
– | 334 ± 76 nM | NC(=O)c1ccc[n+]([C@@H]2O[C@H](COP(=O)(O)OP(=O)(O)OC[C@H]3O[C@@H](n4cnc5c(N)ncnc54)[C@H](OP(=O)(O)O)[C@@H]3O)[C@@H](O)[C@H]2O)c1 [NADP]
